# Laboratory results taken from PMC5772648, “Targeted NUDT5 inhibitors block hormone signaling in breast cancer cells” (Nature Communications, 2018).
# Values joined by “and” are separate entries in the source; they are usually repeats but may differ in a detail not shown here. Identical values can stand only once.
# Legend:
# [1] = target: T1, human NUDT5 (Homo sapiens, UniProt Q9UKK9); assay: enzyme-coupled malachite green assay (MG assay), ADPR hydrolysis; format: biochemical; conditions: NUDT5, ADPR substrate; read-out: MG assay IC50 (Biochemical IC50)
# T1 construct: His-tag (N); made in house; host or cells: E. coli BL21 (DE3) R3 pRARE2
# Excerpt: We next sought to develop small molecule NUDT5 inhibitors to further probe the role of NUDT5 in ADPR metabolism. A high-throughput, screening-compatible NUDT5 inhibition assay was established using slight modifications to the aforementioned MG procedure (Fig. 2a)[15],[27]. Briefly, ADPR, NUDT5 and calf intestinal alkaline phosphatase (CIP) were combined in a coupled enzymatic assay, as described in the online methods. In turn, ADPR was hydrolyzed to AMP and R5P by NUDT5, and the released R5P was further degraded to ribose and inorganic phosphate (Pi) by CIP. Free Pi was subsequently detected using the malachite green reagent. The screen was conducted using a combination of the Chemical Biology Consortium of Sweden (CBCS) primary screening set and several commercial libraries from Enamine, TimTec, Maybridge and ChemDiv. In total, ~72 000 distinct chemical entities were screened for their potential inhibition of NUDT5 at a concentration of 10 µM (Supplementary Table 1, Supplementary Fig. 2a, b). Execution of this screening campaign was split between two different occasions. The screening performance in the two screening campaigns was excellent (average z´ factors of 0.87 and 0.85, Supplementary Fig. 2c), resulting in a hit limit as defined by the average and three standard deviations of the library compound responses of 10.1 and 18.4% inhibition, respectively (Supplementary Table 1, Supplementary Fig. 2a, b). This translated to 53 and 475 hits (0.3 and 0.8% hit rate, respectively), yielding 528 total hits from the 2 separate screening occasions.
# Activity of NUDT5 and MTH1 with a panel of potential substrates [2-OH-ATP, 2-OH-dATP, 8-oxo-dGDP, GDP and 8-oxo-GTP (Jena Biosciences), 8-oxo-dGTP (TriLink Biotechnologies), dATP (ThermoFisher Scientific), dGTP, GTP and ADPR (Sigma-Aldrich)] was assessed in reaction buffer (100 mM Tris Acetate pH 7.5, 40 mM NaCl, 10 mM Mg Acetate) at 22 °C. For ADPR, alkaline phosphatase from bovine intestinal mucosa (10 U/ml; Sigma-Aldrich) was added as coupled enzyme, while other substrates were coupled to E. coli pyrophosphatase (0.2 U/mL, Sigma-Aldrich). After 30 min incubation with shaking, formed inorganic phosphate was detected by addition of malachite green reagent. Absorbance at 630 nm was read after 15 min incubation with shaking using a Hidex Sense plate reader. The potency of NUDT5 inhibitors was assessed similarly as above (and in the screening campaign) by monitoring ADPR hydrolysis; details are in the Supplementary Information.
# Small molecule library composition
# The screen for NUDT5 inhibitors was conducted at Chemical Biology Consortium Sweden (www.cbcs.se). Two screening campaigns completed in August 2012 and in March 2013 respectively comprised a combination of in-house and commercially available libraries, amounting to a total of 75679 compounds. The commercial compounds originate from Enamine, TimTec, MayBridge and ChemDiv. The in-house libraries were donated by Biovitrum AB, Sweden (the origin and composition is described previously)2. For long-term storage, the compounds are kept frozen at - 20°C as 10 mM solutions in dimethyl sulfoxide (DMSO) under low humidity conditions in REMP 96 Storage Tube Racks in a REMP Small-Size Store™. To facilitate screening an aliquot of the stock solutions have been transferred to Labcyte 384 LDV plates (LP-0200) to enable dispensing using an Echo 550™ acoustic liquid handler (LabCyte). For both screening campaigns 40 nl of the compound solutions were dispensed directly into columns 1-22 of the 384-well assay plates (Nunc 242757), while columns 23 and 24 were reserved for controls as outlined below. The plates were sealed with a Peelable Aluminium seal (Agilent 24210-001) using a PlateLoc thermal microplate sealer (Agilent) and kept at room temperature until used. The final compound concentration in the screen was 10 µM with a final DMSO concentration of […]
# Enzymatic assay applied for screening and hit confirmation […]
# [2] = target: T2, NUDT5 in HL-60 cells (Homo sapiens, UniProt Q9UKK9); assay: isothermal dose-response fingerprint CETSA (ITDRFCETSA); format: cell-based; conditions: 20 to 0.06 µM
# T2 construct: endogenous in cells; host or cells: HL-60
# Description: Treatments, heating and lysis procedures for ITDRFCETSA were performed identically to those for CETSA experiments, except NUDT5 inhibitors were added to cells at serial dilutions from 20 to 0.06 µM. Curves were fit by sigmoidal dose-response (variable slope) to derive EC50 values in GraphPad Prism 7.
# [3] = target: T2, NUDT5 in HL-60 cells; assay: CETSA melt curve (apparent Tagg); format: cell-based
# Description: For CETSA experiments with cells treated in culture, 1 × 10^6 HL-60 were treated with DMSO (0.1 % v/v final) or 20 µM compound for 3 h at 37 °C and 5% CO2 in a humidified incubator. T47D^WT cells were treated instead with 80 µM TH1659, 15 µM TH5423/5424 and 1.5 µM TH5427. The cells were harvested, washed twice with PBS and resuspended in TBS with protease inhibitors, as above. Heating was identical as before, except that immediately following heating, the cell suspensions were snap frozen in a dry ice/ethanol bath and freeze-thawed, as previously, to lyse cells. Centrifugation at 20 000 × g for 20 min at 4 °C removed cellular debris and protein aggregates, and lysates were prepared for western blotting. […]
# Supplementary Figure 6: Thermal shift of NUDT5 with TH5427 by CETSA.
# CETSA melt curve comparing DMSO-treated HL-60 cells to those treated with 2.5 or 20 µM TH5427. All points are shown for n=2 experiments and are normalized to SOD1 band intensity as a loading control. Representative, cropped western blots are shown. Apparent Tagg temperatures are shown below. […]
# [4] = tested on: T47D^M cells; assay: progesterone-dependent gene expression by RT-qPCR; format: cell-based; conditions: 1.5 µM, 6 h R5020
# Description: For hormone and inhibitor treatments, normal T47D^WT cells or cells containing a single copy of luciferase under the control of the mouse mammary tumor virus (MMTV) promoter (T47D^M) were used[23]. Prior to hormone induction, cells were grown in phenol red-free RPMI medium supplemented with 10% dextran-coated charcoal-treated FBS (DCC/FBS). After 16 h in serum-free conditions, cells were pre-incubated with DMSO (vehicle) or NUDT5 inhibitor for 2 h at the indicated dose before addition of R5020 (10 nM) or vehicle (ethanol, EtOH) for the allotted time.
# Total RNA and cDNA were prepared using an RNeasy Plus kit (Qiagen) and Superscript II kit (Invitrogen), respectively, according to the manufacturers’ instructions. Quantification of mRNA abundance of specific gene products was performed by RT-qPCR (LightCycler FastStart DNA Master SYBR Green I), normalized to GAPDH and expressed as relative RNA abundance over time zero (no R5020 treatment). Primer sequences are available upon request.
Compound,IC50 [1],ITDRFCETSA dose-dependent stabilization [2],EC50 ([2]; read-out: ITDRFCETSA apparent EC50) [nM],shift of NUDT5 apparent Tagg [3],"progestin-dependent gene expression, EGFR and MMTV-luc [4]","progestin-independent gene expression, CCNB1 and RBM24 [4]"
CCN1CCN(c2nc3c(c(=O)n(C)c(=O)n3C)n2Cc2nnc(-c3ccc(Cl)c(Cl)c3)o2)CC1 [TH5424],39 nM,"could also dose-dependently stabilize NUDT5, however much higher concentrations were required",,,,
Cn1c(=O)c2c(nc(N3CCNCC3)n2Cc2nnc(-c3ccc(Cl)c(Cl)c3)o2)n(C)c1=O [TH5427],29.1 nM and 29 nM,,2100,≈ 8 °C,significantly disrupted EGFR and MMTV-luc expression,did not affect the expression of CCNB1 or RBM24
